By EC50 is commonly meant the midpoint of the concentration-response curve.

The nature of assay [1]: AE maximal score at Adenosine A2A receptor.
The nature of assay [2]: AE maximal score at Adenosine A3 receptor.
The nature of assay [3]: AE maximal score at Adenosine A1 receptor.

On to `COc1cc2c(cc1OC)-c1nc(N)sc1C2`, for which the EC50 was 1 pM in assay [1] and 794 µM in assay [2].

Regarding `COc1ccc2c(c1)CCc1sc(N)nc1-2`, the EC50 in assay [3] is 0.002 µM. This lies in the single-digit nanomolar range.

Take `CC(=O)Oc1ccc2c(c1)CCc1sc(N)nc1-2`: the midpoint of the response in assay [3], the EC50, lay at 158 µM.

For the origin of these results see BindingDB's records for doi:10.1016/s0960-894x(02)00236-6 (University of Virginia, 2002).
